Molecular target: T1, recombinant human GR (Homo sapiens, UniProt P04150)
T1 construct: purchased Panvera/Invitrogen P2812 (kit P2893)
T1 sequence (P04150 1-777): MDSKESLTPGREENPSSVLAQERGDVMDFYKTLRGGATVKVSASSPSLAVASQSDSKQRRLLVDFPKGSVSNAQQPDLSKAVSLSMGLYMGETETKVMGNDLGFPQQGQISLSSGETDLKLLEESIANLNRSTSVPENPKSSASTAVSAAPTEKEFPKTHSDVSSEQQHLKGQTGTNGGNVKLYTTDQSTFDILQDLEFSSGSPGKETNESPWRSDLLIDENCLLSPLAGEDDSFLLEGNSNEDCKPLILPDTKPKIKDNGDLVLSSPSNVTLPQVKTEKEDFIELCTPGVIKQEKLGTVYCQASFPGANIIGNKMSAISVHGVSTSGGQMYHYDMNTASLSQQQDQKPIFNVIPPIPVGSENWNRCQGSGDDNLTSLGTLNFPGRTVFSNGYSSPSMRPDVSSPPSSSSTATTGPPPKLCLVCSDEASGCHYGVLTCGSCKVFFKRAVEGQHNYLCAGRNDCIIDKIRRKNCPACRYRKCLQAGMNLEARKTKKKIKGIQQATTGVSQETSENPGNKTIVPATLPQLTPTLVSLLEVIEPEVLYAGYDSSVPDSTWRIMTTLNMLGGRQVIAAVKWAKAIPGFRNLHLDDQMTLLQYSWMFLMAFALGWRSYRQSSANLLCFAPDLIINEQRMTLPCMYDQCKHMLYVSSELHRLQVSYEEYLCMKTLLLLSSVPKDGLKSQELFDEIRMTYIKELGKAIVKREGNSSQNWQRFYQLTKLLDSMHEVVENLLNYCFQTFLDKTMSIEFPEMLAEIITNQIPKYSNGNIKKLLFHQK
Assay: Human Glucocorticoid Receptor (GR) Assay, fluorescence polarization (GRhuFL_FP_v2, GR-binders)
Type: binding
Experimental: Human Glucocorticoid Receptor (GR) Assay
The assay is based on a commercial kit from Panvera/Invitrogen (Part number P2893). The assay technology is fluorescence polarization. […] The GR and Stabilizing Peptide reagents are stored at −70° C. while the GS Red is stored at −20° C. Also included in the kit are 1M DTT (Panvera, Part number P2325, stored at −20° C.) and GR Screening buffer 10× (Panvera, Part number P2814, stored at −70° C. initially but once thawed stored at room temperature). Avoid repeated freeze/thaws for all reagents. The GR Screening buffer 10× comprises 100 mM potassium phosphate, 200 mM sodium molybdate, 1 mM EDTA and 20% DMSO.
0% control was 100% DMSO and 100% control was 10 μM Dexamethasone. Background solution (8 μL; assay buffer 10×, Stabilizing Peptide, DTT and ice cold MQ water) was added to the background wells. GS Red solution (7 μL; assay buffer 10×, Stabilizing Peptide, DTT, GS Red and ice cold water) was added to all wells except background wells. GR solution (7 μL; assay buffer 10×, Stabilizing Peptide, DTT, GR and ice cold water) was added to all wells. The plate was sealed and incubated in a dark at room temperature for 2 hours.

| SMILES | IC50 [nM] |
| --- | --- |
| Cc1cc(C)c(S(=O)(=O)NC[C@@H](C)Nc2cccc3c2cnn3-c2ccc(F)cc2)c(C)c1 [Example 24, N-((2R)-2-{[1-(4-Fluorophenyl)-1H-indazol-4-yl]amino}propyl)-2,4,6-trimethylbenzenesulfonamide] | 8.7 |
| Cc1cc(C)c(S(=O)(=O)N[C@@H](C)CNc2ccc(F)c3c2cnn3-c2ccc(F)cc2)c(C)c1 [Example 33, N-((1S)-2-{[7-Fluoro-1-(4-fluoro-phenyl)-1H-indazol-4-yl]amino}-1-methylethyl)-2,4,6-trimethylbenzenesulfonamide] | 5.5 |
| Cc1nn(C2CCCC2)c(C)c1S(=O)(=O)N[C@@H](C)CNc1cccc2c1cnn2-c1ccc(OC(F)(F)F)cc1 [Example 27, 1-Cyclopentyl-3,5-dimethyl-N-[(1S)-1-methyl-2-({1-[4-(trifluoromethoxy)phenyl]-1H-indazol-4-yl}amino)ethyl]-1H-pyrazole-4-sulfonamide] | 12 |
| Cc1cc(C)c(S(=O)(=O)N[C@@H](C)CNc2cccc3c2cnn3-c2cccnc2)c(C)c1 [Example 16, 2,4,6-Trimethyl-N-{(1S)-1-methyl-2-[(1-pyridin-3-yl-1H-indazol-4-yl)amino]ethyl}benzenesulfonamide] | 5.6 |
| Cc1cc(C)c(S(=O)(=O)N[C@H](CNc2cccc3c2cnn3-c2ccc(F)cc2)C(C)C)c(C)c1 [Example 35, N-[(1S)-1-({[1-(4-Fluorophenyl)-1H-indazol-4-yl]amino}methyl)-2-methylpropyl]-2,4,6-trimethylbenzenesulfonamide] | 8 |
| COc1cncc(-n2ncc3c(NC[C@H](C)NS(=O)(=O)c4c(C)nn(C5CCCC5)c4C)cccc32)c1 [Example 31, 1-Cyclopentyl-N-((1S)-2-{[1-(5-methoxypyridin-3-yl)-1H-indazol-4-yl]amino}-1-methylethyl)-3,5-dimethyl-1H-pyrazole-4-sulfonamide] | 44 |
| Cc1nn(C2CCCC2)c(C)c1S(=O)(=O)N[C@@H](C)CNc1cccc2c1cnn2-c1cncnc1 [Example 29, 1-Cyclopentyl-3,5-dimethyl-N-{(1S)-1-methyl-2-[(1-pyrimidin-5-yl-1H-indazol-4-yl)amino]ethyl}-1H-pyrazole-4-sulfonamide] | 5.7 |
| COc1cccc(-n2ncc3c(NC[C@H](C)NS(=O)(=O)c4c(C)cc(C)cc4C)cccc32)c1 [Example 8, N-((1S)-2-{[1-(3-Methoxyphenyl)-1H-indazol-4-yl]amino}-1-methylethyl)-2,4,6-trimethylbenzenesulfonamide] | 6.9 |
| Cc1nn(C2CCCC2)c(C)c1S(=O)(=O)N[C@@H](C)CNc1cccc2c1cnn2-c1ccc(C#N)cc1 [Example 30, N-((1S)-2-{[1-(4-Cyanophenyl)-1H-indazol-4-yl]amino}-1-methylethyl)-1-cyclopentyl-3,5-dimethyl-1H-pyrazole-4-sulfonamide] | 4.7 |
| Cc1cc(C)c(S(=O)(=O)N[C@@H](C)CNc2cccc3c2cnn3-c2ccncc2)c(C)c1 [Example 14, 2,4,6-Trimethyl-N-{(1S)-1-methyl-2-[(1-pyridin-4-yl-1H-indazol-4-yl)amino]ethyl}benzenesulfonamide] | 4.3 |
| Cc1nn([C@@H]2CCOC2)c(C)c1S(=O)(=O)N[C@@H](C)COc1cccc2c1cnn2-c1ccc(F)cc1 [Example 45, N-((1S)-2-{[1-(4-Fluorophenyl)-1H-indazol-4-yl]oxy}-1-methylethyl)-3,5-dimethyl-1-[(3R)-tetrahydrofuran-3-yl]-1H-pyrazole-4-sulfonamide] | 18 |
| Cc1cc(C)c(S(=O)(=O)NC[C@H](C)Nc2cccc3c2cnn3-c2ccc(F)cc2)c(C)c1 [Example 40, N-((2S)-2-{[1-(4-Fluorophenol)-1H-indazol-4-yl]amino}propyl)-2,4,6-trimethylbenzenesulfonamide] | 6.4 |

Further lines, results first:

| IC50 [nM] | SMILES |
| --- | --- |
| 3 | Cc1nn(C2CCCC2)c(C)c1S(=O)(=O)N[C@@H](C)CNc1cccc2c1cnn2-c1ccc(F)nc1 [Example 26, 1-Cyclopentyl-N-((1S)-2-{[1-(6-fluoropyridin-3-yl)-1H-indazol-4-yl]amino}-1-methylethyl)-3,5-dimethyl-1H-pyrazole-4-sulfonamide] |
| 5300 | Cc1cc(C)c(S(=O)(=O)N[C@@H](C)CNc2ncnc3c2cnn3-c2ccccc2)c(C)c1 [Example 34, 2,4,6-Trimethyl-N-{(1S)-1-methyl-2-[(1-phenyl-1H-pyrazolo[3,4-d]pyrimidin-4-yl)amino]ethyl}benzenesulfonamide] |
| 7.1 | Cc1cc(C)c(S(=O)(=O)N[C@@H](C)CNc2cccc3c2cnn3-c2ccnc(F)c2)c(C)c1 [Example 10, N-((1S)-2-{[1-(2-Fluoropyridin-4-yl)-1H-indazol-4-yl]amino}-1-methylethyl)-2,4,6-trimethylbenzenesulfonamide] |
| 4 | Cc1cc(C)c(S(=O)(=O)NC(COc2cccc3c2cnn3-c2ccc(F)cc2)C(F)(F)F)c(C)c1 (stereo not shown) [Example 4] |
| 260 | Cc1cc(C)c(S(=O)(=O)N[C@@H](C)CNc2cccc3c2cnn3-c2cccc(C(F)(F)F)c2)c(C)c1 [Example 19, 2,4,6-Trimethyl-N-[(1S)-1-methyl-2-({1-[3-(trifluoromethyl)phenyl]-1H-indazol-4-yl}amino)ethyl]benzene sulfonamide] |
| 36 | Cc1nn([C@H]2CCOC2)c(C)c1S(=O)(=O)N[C@@H](C)COc1cccc2c1cnn2-c1ccc(F)cc1 [Example 47, N-((1S)-2-{[1-(4-Fluorophenyl)-1H-indazol-4-yl]oxy}-1-methylethyl)-3,5-dimethyl-1-[(3S)-tetrahydrofuran-3-yl]-1H-pyrazole-4-sulfonamide] |
| 57 | Cc1cc(C)c(S(=O)(=O)N[C@@H](C)CNc2cccc3c2cnn3-c2cccc(C(=O)O)c2)c(C)c1 [Example 18, 3-[4-({(2S)-2-[(2,4,6-Trimethylbenzenesulfonyl)amino]propyl}amino)-1H-indazol-1-yl]benzoic acid] |
| 1.5 | Cc1n[nH]c(C)c1S(=O)(=O)N[C@@H](C)COc1cccc2c1cnn2-c1ccc(F)cc1 [Example 41, N-((1S)-2-{[1-(4-Fluorophenyl)-1H-indazol-4-yl]oxy}-1-methylethyl)-3,5-dimethyl-1H-pyrazole-4-sulfonamide] |
| 3.8 | Cc1cccc(-n2ncc3c(NC[C@H](C)NS(=O)(=O)c4c(C)cc(C)cc4C)cccc32)c1 [Example 9, 2,4,6-Trimethyl-N-((1S)-1-methyl-2-{[1-(3-methylphenyl)-1H-indazol-4-yl]amino}ethyl)benzenesulfonamide] |
| 7.3 | Cc1cc(C)c(S(=O)(=O)N[C@@H](C)CNc2c(C)ccc3c2cnn3-c2ccc(F)cc2)c(C)c1 [Example 23, N-((1S)-2-{[1-(4-Fluorophenyl)-5-methyl-1H-indazol-4-yl]amino}-1-methylethyl)-2,4,6-trimethylbenzenesulfonamide] |
| 272 | Cc1cc(C)c(S(=O)(=O)N[C@@H](C)CNc2cccc3c2c(C)nn3-c2ccc(F)cc2)c(C)c1 [Example 52, N-((1S)-2-{[1-(4-Fluoro-phenyl)-3-methyl-1H-indazol-4-yl]amino}-1-methylethyl)-2,4,6-trimethylbenzenesulfonamide] |
| 10 | Cc1cc(C)c(S(=O)(=O)N[C@@H](C)CCc2cccc3c(-c4ccc(F)cc4)n[nH]c23)c(C)c1 [Example 53, N-{(1S)-3-[3-(4-Fluorophenyl)-1H-indazol-7-yl]-1-methylpropyl}-2,4,6-trimethylbenzenesulfonamide] |
| 6.6 | COc1ccc(-n2ncc3c(NC[C@H](C)NS(=O)(=O)c4c(C)cc(C)cc4C)cccc32)cn1 [Example 11, N-((1S)-2-{[1-(6-Methoxypyridin-3-yl)-1H-indazol-4-yl]amino}-1-methylethyl)-2,4,6-trimethylbenzenesulfonamide] |
